Reference: PMC7087839 (Chemistry of Natural Compounds, 2018)

Legend:
Type in all cases: cell-based
[1] = system: SARS corona virus (strain Urbani)
[2] = system: Polio virus (strain Type 3, WM-3)
[3] = system: Tacaribe virus (strain TRVL-11573)
[4] = system: Rift Valley fever virus (strain MP-12)

Row | SMILES | activity against Sars corona virus (in words) [1] | antiviral activity against Polio virus (in words) [2] | activity against Takaribe virus (in words) [3] | activity against Rift valley fever virus (in words) [4]
1 | C[C@]12CC[C@H](OC(=O)Cc3ccccc3)C[C@@H]1CC[C@@H]1[C@@H]2CC[C@]2(C)C(=NNC(=O)c3cccc([N+](=O)[O-])c3)CC[C@@H]12 [Compound 4, 3 β -Phenylacetoxy-5α-androstan-17-one m-nitrobenzoylhydrazone] | weakly active | high |  | 
2 | C[C@]12CC[C@H](OC(=O)Cc3ccccc3)C[C@@H]1CC[C@@H]1[C@@H]2CC[C@]2(C)C(=NNC(=O)c3cccnc3)CC[C@@H]12 [Compound 5, 3 β-Phenylacetoxy-5α-androstan-17-one Nicotinoylhydrazone] | weakly active | moderate | weak activity | weakly active
3 | CC(=NNc1ccc([N+](=O)[O-])cc1)C1=CC[C@H]2[C@@H]3CC[C@H]4C[C@@H](O)CC[C@]4(C)[C@H]3CC[C@]12C [Compound 12, 5′-preg-16-en-3β-ol-20-one p-nitrophenylhydrazone] |  | moderate |  | weakly active
